Data on 22 molecules can be found in ChEMBL document CHEMBL1154622, “Structure-guided design of potent and selective pyrimidylpyrrole inhibitors of extracellular signal-regulated kinase (ERK) using conformational control” (J Med Chem, 2009).

A short description of test [1]: Inhibition of GSK3.
Test [2] addresses Mitogen-activated protein kinase 1 (Homo sapiens, UniProt P28482).
Description: Inhibition of ERK2 after 10 mins by spectrophotometric coupled-enzyme assay
Test [3] concerns the target Cyclin-dependent kinase 2 (Homo sapiens, UniProt P24941).
The target in the next test is T1, Aurora kinase A (Homo sapiens, UniProt O14965).
T1 sequence (O14965 whole entry): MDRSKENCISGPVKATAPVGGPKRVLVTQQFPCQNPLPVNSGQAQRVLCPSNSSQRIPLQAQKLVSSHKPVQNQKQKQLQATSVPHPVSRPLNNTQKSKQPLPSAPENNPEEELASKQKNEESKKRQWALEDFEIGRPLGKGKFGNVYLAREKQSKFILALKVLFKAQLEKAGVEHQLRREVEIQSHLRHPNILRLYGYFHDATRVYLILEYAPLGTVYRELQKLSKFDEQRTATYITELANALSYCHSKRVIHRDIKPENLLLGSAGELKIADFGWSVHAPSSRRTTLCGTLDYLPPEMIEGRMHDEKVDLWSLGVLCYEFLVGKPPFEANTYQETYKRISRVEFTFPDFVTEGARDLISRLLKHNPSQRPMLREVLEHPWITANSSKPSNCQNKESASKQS
The test is described as follows: Inhibition of AURA.

For another test, the system named is HT-29. The test is described as follows: Antiproliferative activity against human HT-29 cells. The format is functional, cell-based.

Chain of Mitogen-activated protein kinase 1 (P28482 whole entry): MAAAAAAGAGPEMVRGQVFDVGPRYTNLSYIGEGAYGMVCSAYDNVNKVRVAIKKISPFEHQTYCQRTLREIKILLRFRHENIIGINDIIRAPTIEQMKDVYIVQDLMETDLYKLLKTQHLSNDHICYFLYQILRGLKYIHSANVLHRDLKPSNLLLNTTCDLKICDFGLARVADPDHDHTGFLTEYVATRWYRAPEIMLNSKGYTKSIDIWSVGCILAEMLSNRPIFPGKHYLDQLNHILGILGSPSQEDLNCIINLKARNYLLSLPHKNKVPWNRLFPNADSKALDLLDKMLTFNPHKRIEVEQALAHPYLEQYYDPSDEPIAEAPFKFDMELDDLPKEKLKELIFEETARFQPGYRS

In the case of `Cc1cnc(Nc2cccc3c2CCC3)nc1-c1c[nH]c(C(=O)N[C@H](CO)c2cccc(Cl)c2)c1`, the inhibition constant (Ki) in test [1] is 350 nM; in test [2] it was under 2 nM; in test [3], 642 nM; on Aurora kinase A, 550 nM. In the test on HT-29, the IC50 was 250 nM.

`Cc1ccccc1Nc1ncc(C)c(-c2c[nH]c(C(=O)N[C@H](CO)c3ccccc3)c2)n1` returned a Ki on Aurora kinase A of 860 nM.

Consider `Cc1cnc(Nc2cccc3c2CCCC3)nc1-c1c[nH]c(C(=O)N[C@H](CO)c2cccc(Cl)c2)c1`, for which the Ki in test [1] was 667 nM; in test [2], 13 nM; in test [3], 250 nM; at Aurora kinase A, 280 nM. Besides, the IC50 with HT-29 was 420 nM.

`CCc1ccccc1Nc1ncc(C)c(-c2c[nH]c(C(=O)N[C@H](CO)c3cccc(Cl)c3)c2)n1`: the Ki was 150 nM in test [1], under 2 nM in test [2], 450 nM in test [3] and 720 nM at Aurora kinase A. The midpoint of inhibition in the test with HT-29, the IC50, lay at 39 nM.

With `Cc1cnc(Nc2ccccc2Cl)nc1-c1c[nH]c(C(=O)N[C@H](CO)c2ccccc2)c1`, the Ki in test [1] is 190 nM; in test [2], under 2 nM; in test [3] it was 240 nM; at Aurora kinase A, 1550 nM.

As for `Cc1cnc(Nc2cccc3c2OCO3)nc1-c1c[nH]c(C(=O)N[C@H](CO)c2cccc(Cl)c2)c1`, the Ki is 33 nM in test [1], under 2 nM in test [2], 209 nM in test [3] and 15 nM on Aurora kinase A. In the test with HT-29, this molecule came in with an IC50 of 58 nM.

In the case of `CCc1ccccc1Nc1ncc(C)c(-c2c[nH]c(C(=O)N[C@H](CO)c3ccccc3)c2)n1`, the Ki in test [1] stood at 760 nM; in test [2] it was 3 nM; in test [3] it was 210 nM; on Aurora kinase A, 1430 nM. In addition, the IC50 in the test with HT-29 stood at 66 nM.

For `Cc1cnc(Nc2ccccc2C(F)(F)F)nc1-c1c[nH]c(C(=O)N[C@H](CO)c2ccccc2)c1`, the Ki in test [3] is over 4000 nM; on Aurora kinase A it was over 800 nM. Moreover, the IC50 in the test with HT-29 is 6300 nM.

On to `Cc1cnc(Nc2ccccc2)nc1-c1c[nH]c(C(=O)N[C@H](CO)c2ccccc2)c1`, for which the Ki in test [2] was under 2 nM; at Aurora kinase A, 15 nM. Moreover, inhibition in the test with HT-29 was half-maximal at 29 nM (IC50).

`COc1cccc(Nc2ncc(C)c(-c3c[nH]c(C(=O)N[C@H](CO)c4cccc(Cl)c4)c3)n2)c1OC`: the Ki in test [1] was over 2500 nM; in test [2], 3 nM; in test [3], over 2500 nM; on Aurora kinase A, over 200 nM. The IC50 with HT-29 was found to be 230 nM.

Consider `Cc1cnc(Nc2ccccc2)nc1-c1c[nH]c(C(=O)N[C@@H](CO)c2ccccc2)c1`, for which the Ki in test [2] amounted to 670 nM; at Aurora kinase A it was 270 nM.

In the case of `Cc1cccc([C@@H](CO)NC(=O)c2cc(-c3nc(Nc4ccccc4)ncc3C)c[nH]2)c1`, the Ki was 26 nM in test [1], under 2 nM in test [2], 69 nM in test [3] and 45 nM on Aurora kinase A. For the same molecule, the IC50 with HT-29 came out at 40 nM.

Take `Cc1ccccc1Nc1ncc(C)c(-c2c[nH]c(C(=O)N[C@H](CO)c3cccc(Cl)c3)c2)n1`: the Ki is under 2 nM in test [1] and 400 nM on Aurora kinase A.

`Cc1cnc(Nc2cccc(C)c2C)nc1-c1c[nH]c(C(=O)N[C@H](CO)c2cccc(Cl)c2)c1`: the Ki in test [1] was 110 nM; in test [2], under 2 nM; in test [3], 41 nM; at Aurora kinase A it was 440 nM.

In the case of `Cc1cnc(Nc2ccccc2)nc1-c1c[nH]c(C(=O)N[C@H](CO)c2cccc(Cl)c2)c1`, the Ki was 140 nM in test [1], under 2 nM in test [2], 290 nM in test [3] and 19 nM at Aurora kinase A. The molecule further registered an IC50 in the test on HT-29 of 100 nM.

Turning to `Cc1cc(Cl)ccc1Nc1ncc(C)c(-c2c[nH]c(C(=O)N[C@H](CO)c3cccc(Cl)c3)c2)n1`, the Ki in test [1] was 1100 nM; in test [2] it was 5 nM; in test [3], 76 nM; on Aurora kinase A it was 410 nM. In addition, the IC50 in the test with HT-29 is 98 nM.

With `Cc1cnc(Nc2ccccc2O)nc1-c1c[nH]c(C(=O)N[C@H](CO)c2ccccc2)c1`, the Ki was under 2 nM in test [1], 4 nM in test [2], under 100 nM in test [3] and 99 nM at Aurora kinase A. This molecule also showed an IC50 with HT-29 of 3000 nM.

Consider `Cc1cnc(Nc2ccccc2F)nc1-c1c[nH]c(C(=O)N[C@H](CO)c2ccccc2)c1`, for which the Ki in test [1] is 45 nM; in test [2] it was under 2 nM; in test [3], 57 nM; on Aurora kinase A, 160 nM. Also, in the test on HT-29, the IC50 was 26 nM.

Turning to `Cc1cnc(Nc2ccc(Cl)cc2F)nc1-c1c[nH]c(C(=O)N[C@H](CO)c2cccc(Cl)c2)c1`, the Ki is 450 nM in test [1], 5 nM in test [2], 316 nM in test [3] and 540 nM at Aurora kinase A. For the same molecule, in the test on HT-29, it took 97 nM to reach half-maximal inhibition (IC50).

As to `Cc1cnc(Nc2cccc3c2OC(F)(F)O3)nc1-c1c[nH]c(C(=O)N[C@H](CO)c2cccc(Cl)c2)c1`, the Ki is 310 nM in test [1], under 2 nM in test [2], 170 nM in test [3] and over 800 nM on Aurora kinase A. 280 nM corresponded to half-maximal inhibition in the test with HT-29 (IC50).

As for `Cc1cnc(Nc2cccc3c2OCCO3)nc1-c1c[nH]c(C(=O)N[C@H](CO)c2cccc(Cl)c2)c1`, the Ki is 45 nM in test [1], 15 nM in test [2], 138 nM in test [3] and 11 nM on Aurora kinase A. Inhibition in the test on HT-29 was half-maximal at 58 nM (IC50).

Consider `Cc1cnc(Nc2cccc(F)c2C)nc1-c1c[nH]c(C(=O)N[C@H](CO)c2cccc(Cl)c2)c1`, for which the Ki is 1260 nM in test [1], 34 nM in test [2], 150 nM in test [3] and 410 nM at Aurora kinase A. The molecule also displayed an IC50 in the test on HT-29 of 56 nM.

One may read the Ki as the dissociation constant of the complex between target and ligand, obtained from inhibition or displacement. A higher Ki goes with lower affinity. By IC50 is commonly meant the midpoint of a concentration-inhibition curve.
